Assay results published in patent US20070128217A1 (priority 2003, published 2007).

Assays:
[1] = test system: control sera (pooled serum of ten healthy LUMC hospital workers; commercial negative donor pooled serum from the Dutch bloodbank); type: binding, human; set-up: Binding of Control serum LUMC to linear peptides / Binding of Control serum Blood-bank to linear peptides / Binding of Control serum LUMC to looped peptides / Binding of Control Serum Blood-Bank to Looped peptides / Binding of Control serum LUMC to linear peptides of the protein M of SARS-CoV Urbani / Binding of Control serum Blood-bank to linear peptides of the protein M of SARS-CoV Urbani / Binding of Control serum LUMC to looped peptides of the protein M of SARS-CoV Urbani / Binding of Control Serum Blood-Bank to Looped peptides of the protein M of SARS-CoV Urbani: unit not given here
[2] = test system: rabbit serum obtained by immunizing a rabbit with the SARS-CoV strain Frankfurt 1; type: binding; set-up: Binding of a rabbit serum to linear peptides / Binding of a rabbit serum to looped peptides / Rabbit serum linear peptides / Rabbit serum looped peptides / Binding of a rabbit serum to linear peptides of protein N of SARS-CoV Urbani (Rabbit serum linear peptides) / Binding of a rabbit serum to looped/cyclic peptides of protein N of SARS-CoV Urbani (Rabbit serum looped peptides): unit not given here

Sequence | Binding of Control Serum Blood-Bank to Looped peptides of the protein X3 of SARS-CoV Urbani [1] | Binding of Control serum Blood-bank to linear peptides of the protein X3 of SARS-CoV Urbani [1] | Binding of Control serum LUMC to linear peptides of the protein X3 of SARS-CoV Urbani [1] | Binding of Control serum LUMC to looped peptides of the protein X3 of SARS-CoV Urbani [1] | Rabbit serum linear peptides [2] | Rabbit serum looped peptides [2] | Binding of Control Serum Blood-Bank to Looped peptides [1] | Binding of Control serum Blood-bank to linear peptides [1] | Binding of Control serum LUMC to linear peptides [1] | Binding of Control serum LUMC to looped peptides [1] | Binding of a rabbit serum to linear peptides [2] | Binding of a rabbit serum to looped peptides [2] | Binding of Control Serum Blood-Bank to Looped peptides of the protein M of SARS-CoV Urbani [1] | Binding of Control serum Blood-bank to linear peptides of the protein M of SARS-CoV Urbani [1] | Binding of Control serum LUMC to linear peptides of the protein M of SARS-CoV Urbani [1] | Binding of Control serum LUMC to looped peptides of the protein M of SARS-CoV Urbani [1] | Recognition of the peptide by the rabbit serum [2]
VIISSIVRQLFKPLT | 0.7 | 0.8 | 0.7 | 0.8 | 0.5 | 0.3 |  |  |  |  |  |  |  |  |  |  | 
THNYDYCIPYNSVTD |  |  |  |  |  |  | 0.7 | 0.5 | 0.6 | 0.7 | 0.1 | 0.6 |  |  |  |  | 
RVKNLNSSEGVPDLL |  |  |  |  |  |  | 0.7 | 1.0 | 1.0 | 1.0 | 0.8 | 0.6 |  |  |  |  | 
YFVCWHTHNYDYCIP |  |  |  |  |  |  | 0.6 | 0.6 | 0.7 | 0.6 | 0.1 | 0.6 |  |  |  |  | 
QIGGYSEDRHSGVKD |  |  |  |  |  |  | 0.3 | 0.3 | 0.5 | 0.4 | 0.1 | 0.5 |  |  |  |  | 
ADNKFALTCTSTHFA |  |  |  |  | 0.7 | 0.2 | 0.7 | 0.8 | 0.9 | 0.9 |  |  |  |  |  |  | 
LIIIMRTFRIAIWNL | 0.6 | 0.7 | 0.6 | 0.7 | 0.5 | 0.3 |  |  |  |  |  |  |  |  |  |  | 
FNKLVKDPPNVQIHT |  |  |  |  |  |  | 0.8 | 0.8 | 0.9 | 0.7 | 0.1 | 0.7 |  |  |  |  | 
IFNKLVKDPPNVQIH |  |  |  |  |  |  | 0.6 | 1.1 | 1.0 | 0.6 | 0.1 | 0.6 |  |  |  |  | 
SLVKPTVYVYSRVKN |  |  |  |  |  |  | 0.7 | 0.7 | 1.0 | 0.8 | 0.3 | 0.6 |  |  |  |  | 
WHTHNYDYCIPYNSV |  |  |  |  |  |  | 0.7 | 0.7 | 0.8 | 0.9 | 0.1 | 0.6 |  |  |  |  | 
INWVTGGIAIAMACI |  |  |  |  | 0.5 | 0.4 |  |  |  |  |  |  | 0.6 | 0.8 | 0.5 | 0.9 | 
HTHNYDYCIPYNSVT |  |  |  |  |  |  | 0.6 | 0.6 | 0.7 | 0.6 | 0.1 | 0.6 |  |  |  |  | 
VYSRVKNLNSSEGVP |  |  |  |  |  |  | 1.0 | 0.9 | 0.6 | 0.7 | 0.7 | 0.0 |  |  |  |  | 
YSEDRHSGVKDYVVV |  |  |  |  |  |  | 0.7 | 0.7 | 0.6 | 0.8 | 0.1 | 0.4 |  |  |  |  | 
ATFFIFNKLVKDPPN |  |  |  |  |  |  | 0.8 | 0.5 | 0.5 | 0.8 | 0.1 | 0.6 |  |  |  |  | 
IDNASPASTVHATAT |  |  |  |  |  |  | 0.7 | 0.8 | 0.7 | 0.6 | 0.5 | 0.3 |  |  |  |  | 
DYQIGGYSEDRHSGV |  |  |  |  |  |  | 0.5 | 0.6 | 0.5 | 0.7 | 0.1 | 0.5 |  |  |  |  | 
YQECVRGTTVLLKEP |  |  |  |  | 0.5 | 0.5 | 0.9 | 0.8 | 0.7 | 0.8 |  |  |  |  |  |  | 
KPTVYVYSRVKNLNS |  |  |  |  |  |  | 0.9 | 0.7 | 0.8 | 0.9 | 0.6 | 0.9 |  |  |  |  | 
KDPPNVQIHTIDGSS |  |  |  |  |  |  | 1.1 | 0.3 | 0.3 | 1.1 | 0.1 | 0.9 |  |  |  |  | 
LTKKNYSELDDEEPM | 0.8 | 0.9 | 0.6 | 1.0 | 0.2 | 0.4 |  |  |  |  |  |  |  |  |  |  | 
VCWHTHNYDYCIPYN |  |  |  |  |  |  | 0.7 | 0.7 | 0.8 | 0.6 | 0.1 | 0.6 |  |  |  |  | 
YCCNIVNVSLVKPTV |  |  |  |  |  |  | 0.7 | 0.9 | 0.6 | 0.6 | 0.7 | 0.3 |  |  |  |  | 
TQVLKTMSLYMAISP |  |  |  |  |  |  | 0.7 | 0.7 | 0.7 | 0.8 | 0.1 | 0.4 |  |  |  |  | 
CAYCCNIVNVSLVKP |  |  |  |  |  |  | 0.9 | 1.1 | 0.7 | 0.7 | 0.6 | 0.2 |  |  |  |  | 
NGTITVEELKQLLEQ |  |  |  |  |  |  |  |  |  |  |  |  | 0.6 | 0.7 | 0.5 | 0.8 | recognized
RQLFKPLTKKNYSEL | 0.9 | 0.9 | 0.8 | 0.7 | 0.3 | 0.5 |  |  |  |  |  |  |  |  |  |  | 
YDYCIPYNSVTDTIV |  |  |  |  |  |  | 0.5 | 0.6 | 0.7 | 0.6 | 0.1 | 0.5 |  |  |  |  | 
IVRQLFKPLTKKNYS | 0.9 | 0.9 | 0.8 | 0.9 | 0.4 | 0.6 |  |  |  |  |  |  |  |  |  |  | 
